Source: US20240123078A1, “COMPOUNDS AND METHODS FOR MODULATING IMMUNE-RELATED PROTEINS” (Vividion Therapeutics, Inc., priority 2019, published 2024)

Columns and labels:
[1] = biological target: T1, KAT8 Histone acetyltransferase KAT8 C416 (Q9H7Z6) (Homo sapiens, UniProt Q9H7Z6); test: Cysteine reactivity ABPP; format: binding; settings: 100
T1 construct: endogenous in cells; host or cells: primary human T cells
T1 sequence (Q9H7Z6 1-458): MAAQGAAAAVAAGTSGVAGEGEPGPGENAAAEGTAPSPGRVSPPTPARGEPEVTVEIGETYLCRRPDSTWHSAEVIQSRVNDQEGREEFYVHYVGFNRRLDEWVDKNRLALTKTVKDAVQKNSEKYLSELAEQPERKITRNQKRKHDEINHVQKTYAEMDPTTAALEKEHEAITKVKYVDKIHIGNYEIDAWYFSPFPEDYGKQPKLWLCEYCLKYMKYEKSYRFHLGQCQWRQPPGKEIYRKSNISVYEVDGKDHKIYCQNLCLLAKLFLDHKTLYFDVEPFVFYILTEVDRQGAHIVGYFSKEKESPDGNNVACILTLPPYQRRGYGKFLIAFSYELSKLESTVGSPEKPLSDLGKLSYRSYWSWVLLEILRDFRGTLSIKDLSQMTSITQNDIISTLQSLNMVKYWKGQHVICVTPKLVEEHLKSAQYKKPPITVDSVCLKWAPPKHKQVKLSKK

[2] = biological target: T2, UBASH3A Ubiquitin-associated and SH3 domain-containing protein A C435 (P57075) (Homo sapiens, UniProt P57075); test: Cysteine reactivity ABPP; format: binding; settings: 100
T2 construct: endogenous in cells; host or cells: primary human T cells
T2 sequence (P57075 1-661): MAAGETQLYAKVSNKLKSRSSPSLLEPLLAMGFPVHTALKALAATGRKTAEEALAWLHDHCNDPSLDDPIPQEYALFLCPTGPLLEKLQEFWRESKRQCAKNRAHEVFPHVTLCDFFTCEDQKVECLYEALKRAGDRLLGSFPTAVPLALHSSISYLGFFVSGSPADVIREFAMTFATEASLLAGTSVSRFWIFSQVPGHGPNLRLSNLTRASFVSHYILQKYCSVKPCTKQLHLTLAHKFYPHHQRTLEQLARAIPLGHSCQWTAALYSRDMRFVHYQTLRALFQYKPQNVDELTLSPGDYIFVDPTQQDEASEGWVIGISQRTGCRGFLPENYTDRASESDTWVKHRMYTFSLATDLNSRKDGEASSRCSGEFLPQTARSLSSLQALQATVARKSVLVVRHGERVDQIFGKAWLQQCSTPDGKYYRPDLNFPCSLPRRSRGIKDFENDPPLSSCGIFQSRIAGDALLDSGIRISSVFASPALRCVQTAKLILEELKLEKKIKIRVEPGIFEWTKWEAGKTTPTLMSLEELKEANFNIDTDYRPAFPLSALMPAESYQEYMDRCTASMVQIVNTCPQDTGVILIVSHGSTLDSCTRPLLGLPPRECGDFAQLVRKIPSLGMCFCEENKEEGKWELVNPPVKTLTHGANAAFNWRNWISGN

- Cysteine reactivity proteomic data [1]: 67.98
- Cysteine reactivity proteomic data [2]: 78.65
Structure (SMILES): O=C(CCl)N1CCN(S(=O)(=O)c2ccc(-c3ccncc3)cc2)CC1 [Compound B9]
